Measured values reported in patent publication US6339075B1, “Use of dextran and other polysaccharides to improve mucus clearance” (The University of British Columbia, priority 1997, dated 2002).

Test system: healthy mongrel dogs
Experiment: Arginine aerosol with or without dextran in anaesthetized dogs: PD, TMV, mucus rigidity
Format: in vivo, dog
Experimental: Arginine/arg. HCl was prepared as described by Solomons (Pediatrics 1971;47:384), making a stock solution of 290 mOsm, pH 7.4. Two dilutions were prepared, 97 and 29 mOsm, the balance being Ringers. The solutions were delivered by Pari jet nebulizer to 8 healthy mongrel dogs anaesthetized with pentobarbital and intubated. After 30 min. Ringer aerosol, tracheal mucus velocity (TMV by charcoal particle transport) and potential difference (PD by agar bridge) were measured under bronchoscopic control, and mucus for viscoelasticity analysis (magnetic rheometer) was collected on the endotracheal tube. On one occasion, increasing arginine conc. were aerosolized hourly, following Ringer control. On a second occasion, the same arginine solutions were used, but with 65 mg/ml low m. w. dextran (Polydex, lot #2764) added.

For `N=C(N)NCCC[C@H](N)C(=O)O` [arginine, L-arginine], the TMV (arginine aerosol with or without dextran, increased nonsignificantly from 11.9±2.2 (Ringer)) was 14.7±2.9 mm/min, the “mucus rigidity (log G*) decreased” value (arginine aerosol without dextran) was “not” and the “lumen-negative PD” value (increasing arginine aerosol, with or without added dextran 65 mg/ml, Ringer −14.3±1.4 mV) was −20.1±3.6 mV.
